Data on four compounds can be found in publication PMC5228037, “Discovery and Mechanistic Characterization of Selective Inhibitors of H2S-producing Enzyme: 3-Mercaptopyruvate Sulfurtransferase (3MST) Targeting Active-site Cysteine Persulfide” (Scientific Reports, 2017).

The target of assay [1] is T1, recombinant purified m3MST (Mus musculus, UniProt Q99J99).
T1 construct: made in house; host or cells: E. coli BL21
T1 sequence (Q99J99 1-297): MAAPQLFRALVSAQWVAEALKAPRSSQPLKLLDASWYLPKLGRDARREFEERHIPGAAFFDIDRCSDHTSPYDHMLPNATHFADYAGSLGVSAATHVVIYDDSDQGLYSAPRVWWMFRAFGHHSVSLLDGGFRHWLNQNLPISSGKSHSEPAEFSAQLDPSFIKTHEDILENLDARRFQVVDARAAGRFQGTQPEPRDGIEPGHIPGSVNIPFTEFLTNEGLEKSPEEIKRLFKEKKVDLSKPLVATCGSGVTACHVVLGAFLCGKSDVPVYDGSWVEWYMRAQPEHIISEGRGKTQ
In words: Inhibitory activity toward purified m3MST by gas chromatography. Type of assay: biochemical. Conditions: 10 μM compound; 50 μM 3MP, 40 μM DTT; room temperature 3 hr; mean±S.D. n = 2; read-out: Inhibitory activity toward recombinant purified m3MST (H2S production by gas chromatography). On the procedure:
1 μL of 1 mM compound (final 10 μM) was diluted with 89 μL of 3MST solution (final 3.8 μg/mL) or GST solution (2.2 μg/mL) in 30 mM HEPES buffer (pH 7.4) in a 30 mL collection vial (Iwaki). 10 μL of 3MP and DTT solution (final concentration: 50 μM 3MP and 40 μM DTT) was added to 90 μL of the mixture, then the vial was sealed with parafilm and incubated at room temperature for 3 hr. After addition of 200 μL of 1 M sodium citrate buffer (pH 6.0), the mixture was incubated at 37 °C for at least 10 minutes with shaking on rotary shaker to quench the enzymatic activity and facilitate release of H2S gas from the aqueous phase. A 2 mL sample of head-space gas (total, approximately 29.5 mL) was applied to a gas chromatograph (ODSA-P2, Alpha M.O.S. Japan). The concentrations of H2S were determined from a standard curve obtained with 0 to 4 nmol of Na2S, which is a source of H2S. The protocol is illustrated in Supplementary Fig. 9.
Compound Inhibitory activity
All data are presented as the mean±S.D. (n = 2).
Supplementary Figure S9. (a) Schematic illustration of 3MST inhibitor assay by gas chromatography. (b) Inhibitory activity toward recombinant purified m3MST. Conditions: Mixtures of 10 μM test compound, 3.8 μg/mL 3MST or 2.2 μg/mL GST, 50 μM 3MP, 40 μM DTT, and 1% (v/v) DMSO in 30 mM HEPES buffer (pH 7.4) were incubated at room temperature for 3 hr.
(1 picture or pasted object on this page, not shown here)

Assay [2] concerns the target T2, GST-fused m3MST (GST-3MST) (Mus musculus, UniProt Q99J99).
T2 construct: made in house; host or cells: E. coli BL21
T2 sequence (Q99J99 1-297): T1 sequence (Q99J99 1-297)
In words: 3MST inhibitor screening with H2S fluorescent probe HSip-1 (confirmation test, titration test). To be noted: HSip-1 fluorescence, room temperature 3 hr; for inhibition at 10 µM: 10 μM compound, 50 μM 3MP, 40 μM DTT, mean±S.D. n = 4; for IC50: 0.25, 1, 3, 10, 30 μM compound, 3MP and DTT, read-out: IC50 of 3MST inhibition (titration test). Format: biochemical.

Take `NC(=O)c1ccsc1NC(=O)CSc1nc2ccccc2c(=O)[nH]1` [compound 1]: the inhibition at 10 µM in assay [1] came out at 104 ± 2.7%. For the same compound, in assay [2], the inhibition at 10 µM came out at 102.8 ± 0.2% and the IC50 was 1.7 µM.
As for `Cc1sc2nc(SCC(=O)c3ccc(O)cc3O)[nH]c(=O)c2c1C` [compound 2], in assay [1], the inhibition at 10 µM was found to be 93.4 ± 0.8%. In assay [2], the inhibition at 10 µM amounted to 81.7 ± 2.5% and the IC50 was found to be 6.3 µM.
With `Cc1cc(=O)[nH]c(SCC(=O)c2cccc3ccccc23)n1` [compound 3], the inhibition at 10 µM in assay [1] stood at 90.3 ± 12%. In addition, in assay [2], the inhibition at 10 µM came out at 102 ± 2.9% and the IC50 was 2.7 µM.
For `O=C(O)c1cccc(NS(=O)(=O)c2ccccc2)c1` [compound 5] the same measures were 90.9 ± 0.9%, 95.5 ± 3.4% and 5.7 µM.
